Source: ChEMBL document CHEMBL4406848, “Novel water soluble BODIPY compounds: Synthesis, photochemical, DNA interaction, topoisomerases inhibition and photodynamic activity properties” (Eur J Med Chem, 2019)
Active and inactive are the calls of the source. No cut-off for these calls is given here.

Tests used:
[1] = Induction of singlet oxygen generation in DMSO solution assessed as singlet oxygen quantum yield by measuring reduction in DPBF irradiated with 650 nanometer laser light; type: functional
[2] = Photostability of compound in TBS assessed as percentage of photodegradation measured every 10 mins for 1 hr at 17.5 mW/cm'2 irradiation by UV-visible spectrophotometry
Calf thymus DNA [3] = assay: Binding affinity to calf thymus DNA assessed as percentage of hypochromicity incubated for 10 mins by UV-visible spectrophotometry; type: nucleic-acid assay; conditions: Bos taurus
Calf thymus DNA [4] = assay: Binding affinity to calf thymus DNA assessed as binding constant incubated for 10 mins by UV-visible spectrophotometry; type: nucleic-acid assay; conditions: Bos taurus
Calf thymus DNA [5] = assay: Competitive binding affinity to calf thymus DNA assessed as change in viscosity incubated for 10 mins by viscometer; type: nucleic-acid assay; conditions: Bos taurus
DNA [6] = assay: Induction of Escherichia coli plasmid pBR322 DNA cleavage at 3.125 to 25 uM incubated for 1 hr in dark by agarose gel electrophoresis; type: nucleic-acid assay
DNA [7] = assay: Induction of Escherichia coli plasmid pBR322 DNA cleavage assessed as decrease in supercoiled DNA at 3.125 uM in presence of light irradiation and incubated for 1 hr by agarose gel electrophoresis relative to control; type: nucleic-acid assay; parameters: scale not given: the % may be the effect or the level left
[8] = biological target: T1, DNA topoisomerase 1 (Homo sapiens) (UniProt P11387); assay: Inhibition of recombinant human topoisomerase 1 at 12.50 uM incubated for 1 hr by ethidium bromide staining based agarose gel electrophoresis method relative to control
T1 sequence (whole entry): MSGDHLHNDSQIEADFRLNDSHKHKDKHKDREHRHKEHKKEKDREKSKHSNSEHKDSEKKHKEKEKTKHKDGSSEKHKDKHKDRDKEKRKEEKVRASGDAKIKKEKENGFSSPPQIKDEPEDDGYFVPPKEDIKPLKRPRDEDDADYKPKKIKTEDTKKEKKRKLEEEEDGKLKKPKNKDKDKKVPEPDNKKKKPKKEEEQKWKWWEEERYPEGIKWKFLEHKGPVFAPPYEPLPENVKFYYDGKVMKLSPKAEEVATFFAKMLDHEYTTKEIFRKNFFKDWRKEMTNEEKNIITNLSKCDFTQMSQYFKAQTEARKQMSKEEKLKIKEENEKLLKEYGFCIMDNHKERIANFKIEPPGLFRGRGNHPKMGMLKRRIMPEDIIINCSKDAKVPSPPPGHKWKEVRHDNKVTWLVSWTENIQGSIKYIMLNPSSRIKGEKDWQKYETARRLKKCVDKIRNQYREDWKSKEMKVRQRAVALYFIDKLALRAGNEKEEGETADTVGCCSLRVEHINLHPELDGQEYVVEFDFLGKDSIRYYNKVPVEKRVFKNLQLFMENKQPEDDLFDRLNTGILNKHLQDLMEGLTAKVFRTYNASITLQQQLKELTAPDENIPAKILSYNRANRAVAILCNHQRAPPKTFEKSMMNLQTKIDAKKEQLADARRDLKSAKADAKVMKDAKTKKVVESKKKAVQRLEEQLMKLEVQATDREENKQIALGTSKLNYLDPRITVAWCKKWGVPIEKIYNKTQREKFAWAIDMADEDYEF

[9] = biological target: T1, DNA topoisomerase 1 (Homo sapiens); assay: Inhibition of recombinant human topoisomerase 1 at 25 uM incubated for 1 hr by ethidium bromide staining based agarose gel electrophoresis method relative to control
[10] = biological target: T1, DNA topoisomerase 1 (Homo sapiens); assay: Inhibition of recombinant human topoisomerase 1 at 50 uM incubated for 1 hr by ethidium bromide staining based agarose gel electrophoresis method relative to control
[11] = biological target: T2, DNA topoisomerase II (Homo sapiens) (UniProt P11388+Q02880); assay: Inhibition of recombinant human topoisomerase 2 assessed as supercoiled DNA at 50 uM incubated for 1 hr by ethidium bromide staining based agarose gel electrophoresis method relative to control; type: protein assay; parameters: scale not given: the % may be the effect or the level left
[12] = biological target: T2, DNA topoisomerase II (Homo sapiens); assay: Inhibition of recombinant human topoisomerase 2 at 12.5 uM incubated for 1 hr by ethidium bromide staining based agarose gel electrophoresis method relative to control; type: protein assay
[13] = biological target: T2, DNA topoisomerase II (Homo sapiens); assay: Inhibition of recombinant human topoisomerase 2 at 25 uM incubated for 1 hr by ethidium bromide staining based agarose gel electrophoresis method relative to control; type: protein assay
[14] = biological target: T2, DNA topoisomerase II (Homo sapiens); assay: Inhibition of recombinant human topoisomerase 2 at 50 uM incubated for 1 hr by ethidium bromide staining based agarose gel electrophoresis method relative to control; type: protein assay
HCT-116 [15] = assay: Cytotoxicity against human HCT116 cells assessed as cell viability at 0.5 and 1 uM incubated for 24 hrs in dark by MTT assay; type: functional, cell-based
HCT-116 [16] = assay: Cytotoxicity against human HCT116 cells assessed as cell viability at 100 uM incubated for 24 hrs in dark by MTT assay relative to control; type: functional; conditions: HCT-116, 24 h, read-out: Activity
HCT-116 [17] = assay: Cytotoxicity against human HCT116 cells assessed as cell viability at 50 uM incubated for 24 hrs in dark by MTT assay relative to control; type: functional; conditions: HCT-116, 24 h, read-out: Activity
HCT-116 [18] = assay: Cytotoxicity against human HCT116 cells assessed as cell viability at 10 uM incubated for 24 hrs in dark by MTT assay relative to control; type: functional; conditions: HCT-116, 24 h, read-out: Activity
HCT-116 [19] = assay: Cytotoxicity against human HCT116 cells assessed as cell viability incubated for 24 hrs in dark by MTT assay; type: functional, cell-based; conditions: for IC50: HCT-116, 24 h
HCT-116 [20] = assay: Cytotoxicity against human HCT116 cells assessed as cell viability at 5 uM incubated for 24 hrs in dark by MTT assay relative to control; type: functional; conditions: HCT-116, 24 h, read-out: Activity
HCT-116 [21] = assay: Cytotoxicity against human HCT116 cells assessed as cell viability at 1 uM incubated for 24 hrs in dark by MTT assay relative to control; type: functional; conditions: HCT-116, 24 h, read-out: Activity
HCT-116 [22] = assay: Cytotoxicity against human HCT116 cells assessed as cell viability at 0.5 uM incubated for 24 hrs in dark by MTT assay relative to control; type: functional; conditions: HCT-116, 24 h, read-out: Activity
HCT-116 [23] = assay: Phototoxicity against human HCT116 cells assessed as cell viability at 100 uM incubated for 24 hrs under 17.5 mW/cm2 light irradiation by MTT assay relative to control; type: functional; conditions: HCT-116, light or radiation study, read-out: Activity
HCT-116 [24] = assay: Phototoxicity against human HCT116 cells assessed as cell viability at 50 uM incubated for 24 hrs under 17.5 mW/cm2 light irradiation by MTT assay relative to control; type: functional; conditions: HCT-116, light or radiation study, read-out: Activity
HCT-116 [25] = assay: Phototoxicity against human HCT116 cells assessed as cell viability at 0.5 uM incubated for 24 hrs under 17.5 mW/cm2 light irradiation by MTT assay relative to control; type: functional; conditions: HCT-116, light or radiation study, read-out: Activity
HCT-116 [26] = assay: Phototoxicity against human HCT116 cells assessed as reduction in cell viability incubated for 24 hrs under 17.5 mW/cm2 light irradiation by MTT assay; type: functional, cell-based; conditions: HCT-116, light or radiation study
HCT-116 [27] = assay: Induction of apoptosis in human HCT116 cells assessed as viable cells at 10 uM incubated for 24 hrs in presence of irradiation by annexin V FITC and propidium iodide based flow cytometry (reference value: 94.8 %); type: functional; conditions: HCT-116, light or radiation study, read-out: Activity
HCT-116 [28] = assay: Induction of apoptosis in human HCT116 cells assessed as early apoptotic cells at 10 uM incubated for 24 hrs in presence of irradiation by annexin V FITC and propidium iodide based flow cytometry (reference value: 3.4 %); type: functional
HCT-116 [29] = assay: Induction of apoptosis in human HCT116 cells assessed as necrotic cells at 10 uM incubated for 24 hrs in presence of irradiation by annexin V FITC and propidium iodide based flow cytometry (reference value: 0.2 %); type: functional

| Structure (SMILES) | Activity [1] | Drug degradation [2] [%] | Activity (Calf thymus DNA [3]) [%] | Kb (Calf thymus DNA [4]) | Activity (Calf thymus DNA [5]) | Activity (DNA [6]) | Activity (DNA [7]) [%] | inhibition [8] [%] | inhibition [9] [%] | inhibition [10] [%] | Activity [11] [%] | inhibition [12] [%] | inhibition [13] [%] | inhibition [14] [%] | Activity (HCT-116 [15]) | viability at 100 µM (HCT-116 [16]) [%] | viability at 50 µM (HCT-116 [17]) [%] | viability at 10 µM (HCT-116 [18]) [%] | IC50 (HCT-116 [19]) [µM] | viability at 5 µM (HCT-116 [20]) [%] | also measured |
| --- | --- | --- | --- | --- | --- | --- | --- | --- | --- | --- | --- | --- | --- | --- | --- | --- | --- | --- | --- | --- | --- |
| CC1=CC(/C=C/c2ccc(OCCCc3ccc[n+](C)c3)c(OCCCc3ccc[n+](C)c3)c2)=[N+]2C1=C(c1ccc(OCCCc3ccc[n+](C)c3)c(OCCCc3ccc[n+](C)c3)c1)c1c(C)cc(/C=C/c3ccc(OCCCc4ccc[n+](C)c4)c(OCCCc4ccc[n+](C)c4)c3)n1[B-]2(F)F.[I-].[I-].[I-].[I-].[I-].[I-] | 0.62 | 18.7 | 46.7 | 1.59 ×10³ /M | Active | inactive | 58.5 | 89.1 | 89.4 | 89.9 | 87.7 | 56.4 | 58.7 | 61.5 | inactive | 90 | 100 | 96 | > 100 | 96 | viability at 1 µM (HCT-116 [21]): 100%; viability at 0.5 µM (HCT-116 [22]): 100%; viability at 100 µM (HCT-116 [23]): 66%; viability at 50 µM (HCT-116 [24]): 85%; viability at 0.5 µM (HCT-116 [25]): 100%; IC50 (HCT-116 [26]): > 100 µM; viability at 10 µM (HCT-116 [27]): 95.5%; Activity (HCT-116 [28]): 3.3%; Activity (HCT-116 [29]): 0.1% |
| CC1=CC(/C=C/c2ccc(OCCCc3ccc[n+](C)c3)cc2)=[N+]2C1=C(c1ccc(OCCCc3ccc[n+](C)c3)cc1)c1c(C)cc(/C=C/c3ccc(OCCCc4ccc[n+](C)c4)cc3)n1[B-]2(F)F.[I-].[I-].[I-] | 0.46 | 17.7 | 47.8 | 1.87 ×10⁴ /M | Active | inactive | 76.8 | 88.5 | 88.6 | 89 | 77.2 | 54.6 | 54.6 | 56.2 | inactive | 57 | 67 | 88 | > 100 | 91 | Activity (HCT-116 [19]): Dose-dependent effect; viability at 1 µM (HCT-116 [21]): 100%; viability at 0.5 µM (HCT-116 [22]): 100%; viability at 100 µM (HCT-116 [23]): 0%; viability at 50 µM (HCT-116 [24]): 6%; viability at 0.5 µM (HCT-116 [25]): 100%; IC50 (HCT-116 [26]): 3.95 µM; viability at 10 µM (HCT-116 [27]): 9.6%; Activity (HCT-116 [28]): 54.4%; Activity (HCT-116 [29]): 3.4% |
